# Experiments:
# human HSD17B13 [1] = target: T1, human HSD17B13 (Homo sapiens, UniProt Q7Z5P4); assay: Substrate screening of steroid and bioactive lipid libraries against purified recombinant HSD17B13 (NADH-linked luciferase assay); type: biochemical; details: for HSD17B13 Enzymatic Activity Relative Light Units: 500 μM NAD+, 100 ng enzyme, 3 hours at 23° C.; for HSD17B13 Enzymatic Activity Percent Estradiol Control: normalized to 50 μM estradiol after subtraction of 5% DMSO
# T1 sequence (Q7Z5P4 20-300): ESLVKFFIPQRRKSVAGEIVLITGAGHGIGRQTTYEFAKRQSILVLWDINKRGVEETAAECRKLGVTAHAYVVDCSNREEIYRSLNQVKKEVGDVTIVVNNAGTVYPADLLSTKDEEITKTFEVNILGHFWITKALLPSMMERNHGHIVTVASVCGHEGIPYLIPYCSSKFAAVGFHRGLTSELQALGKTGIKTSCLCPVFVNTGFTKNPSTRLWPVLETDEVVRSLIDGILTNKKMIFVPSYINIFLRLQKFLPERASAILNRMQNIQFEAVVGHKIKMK
# Method in brief: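 Recombinant human HSD17B13 (100 ng) incubated 3 h at 23° C in 0.2 M Tris-HCl pH 7.5 with 500 μM NAD+ and 5 μM bioactive lipid or 50 μM steroid (5% DMSO). NADH measured by luciferase luminescence after 1 h; values as percent of 50 μM estradiol control after 5% DMSO subtraction.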
# human HSD17B13 [2] = target: T1, human HSD17B13; assay: Biochemical NADH-linked screen of compound libraries as substrates for HSD17B13 (Example 1); details: 50 μM substrate, 0.5 mM NAD+, 24 hr at 25 degrees C.
# Description: A biochemical assay was employed to screen the compounds from the library. The assay employed the following reaction conditions: 0.1 M Potassium phosphate buffer pH 7.5, 0.5 mM NAD^+, 50 μM substrate in DMSO 2% reaction volume or DMSO alone (no substrate) as a control, and 1 μl of purified enzyme or green fluorescent protein (GFP) as a control, with a final reaction volume of 100 microliters. Test samples were subject to a 24 hr incubation at 25 degrees C. After incubation, 20 μL reaction above+20 μL luciferase were incubated at room temperature for 1 h and read on an Envision Plate Reader (Perkin Elmer).
# [3] = target: T2, recombinant HSD17B13 (E20-K300) (Homo sapiens, UniProt Q7Z5P4); assay: Biochemical NADH-linked screen of bioactive lipids as substrates (Example 2); details: 5 μM substrate, 100 μM NAD+, four hours at room temperature
# T2 construct: recombinant HSD17B13 (E20-K300)
# T2 sequence (Q7Z5P4 20-300): T1 sequence (Q7Z5P4 20-300)
# Description: The biochemical assay described in Example 1 was repeated using bioactive lipids as substrates. In brief, 5 μM of each substrate was incubated in 40 μL reactions containing 1 μg of recombinant HSD17B13 (E20-K300) or beta-2 microglobulin (as a negative control) and 100 μM NAD^+ in 0.2M Tris-HCl, pH 7.5. After four hours of incubation at room temperature, 10 μL of each reaction was mixed with 10 μL luciferase and read, after 40 minutes, on an Envision Plate Reader (Perkin Elmer).
# HSD17B1 [4] = target: T3, HSD17B1 (Homo sapiens, UniProt P14061); assay: Cell-based assay of estrone to estradiol conversion by HSD17B1 (LC-MS); details: over 48 hour period
# T3 construct: made in house
# T3 sequence (P14061 1-328): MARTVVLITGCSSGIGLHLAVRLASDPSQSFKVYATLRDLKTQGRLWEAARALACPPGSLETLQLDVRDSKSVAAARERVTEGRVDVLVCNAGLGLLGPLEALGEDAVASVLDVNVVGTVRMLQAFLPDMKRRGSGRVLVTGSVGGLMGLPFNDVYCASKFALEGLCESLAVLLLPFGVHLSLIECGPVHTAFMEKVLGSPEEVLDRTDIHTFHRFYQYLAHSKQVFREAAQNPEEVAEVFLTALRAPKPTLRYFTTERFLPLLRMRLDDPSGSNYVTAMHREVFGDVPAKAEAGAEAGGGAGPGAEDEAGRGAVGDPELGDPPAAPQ
# From the text: The capacity of HSD17B1 to convert estrone to estradiol, and the capacity of equilin to inhibit HSD17B1 was confirmed in a cell-based assay. Liquid chromatography and mass spectrometry (LC-MS) was used to measure estrone and estradiol concentration over time.
# HSD17B2 = target: T4, HSD17B2 (Homo sapiens, UniProt P37059); assay: Steroid substrate panel against HSD17B family member B2; type: biochemical; details: substrate at 50 μM; estradiol set as 100%
# T4 construct: made in house
# T4 sequence (P37059 1-387): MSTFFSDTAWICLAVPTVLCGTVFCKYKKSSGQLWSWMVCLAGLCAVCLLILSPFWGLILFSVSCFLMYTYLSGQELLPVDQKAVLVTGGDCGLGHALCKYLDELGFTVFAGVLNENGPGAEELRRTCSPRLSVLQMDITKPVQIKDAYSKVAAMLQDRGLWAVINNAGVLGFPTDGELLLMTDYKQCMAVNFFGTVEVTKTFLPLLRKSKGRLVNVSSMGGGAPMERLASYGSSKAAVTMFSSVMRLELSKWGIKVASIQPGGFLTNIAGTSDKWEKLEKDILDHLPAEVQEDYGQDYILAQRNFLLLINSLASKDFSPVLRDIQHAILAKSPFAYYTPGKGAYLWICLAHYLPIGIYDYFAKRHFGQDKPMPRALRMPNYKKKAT
# Description: (§1) To understand the functional consequences of premature truncation of the HSD17B13 protein due to rs72613567:TA (the associated variant, rs72613567, is an insertion of an adenine adjacent to the donor splice site of exon six (TA allele)), the enzymatic activity of isoforms A and D was evaluated in vitro using recombinant protein and nicotinamide […] dinucleotide as cofactor. Reactions were performed in a final volume of 40 μl of assay buffer (0.2 M Tris-HCl, pH 7.5) which contained 500 μM NAD^+, 5 μM bioactive lipid or 50 μM steroid (all in a final concentration of 5% DMSO), and 100 ng of recombinant human HSD17B13. Reactions were incubated for 3 hours, at 23° C., after which an equal volume detection reagent was added. Following a 1 hour incubation at 23° C., the relative light units (RLUs) were measured on an Envision Plate Reader (Perkin Elmer). Raw RLU values were normalized as percent of control (50 μM estradiol) following subtraction of negative control (5% DMSO) using the following formula: Percent of control (POC)=100×(Sample (RLU)−Negative CTRLaverage)/(Positive CTRLaverage−Negative CTRLaverage).
# (§2) In order to determine specificity of compounds with inhibitory activity against HSD17B13, assays for selected members of the HSD17B family which includes HSD17B1-HSD17B14 were established. As a first step, selected family members were expressed, purified and tested for activity a using a steroid substrate panel. Substrates from the steroid panel were tested at 50 μM, using the standard assay protocol. Activity against the substrates for each HSD17B family member were normalized to Percent of Control (POC). The control, estradiol, was set as 100%.
# HSD17B4 = target: T5, HSD17B4 (Homo sapiens, UniProt P51659); assay: Steroid substrate panel against HSD17B family member B4; type: biochemical; details: substrate at 50 μM; estradiol set as 100%
# T5 construct: made in house
# T5 sequence (P51659 1-736): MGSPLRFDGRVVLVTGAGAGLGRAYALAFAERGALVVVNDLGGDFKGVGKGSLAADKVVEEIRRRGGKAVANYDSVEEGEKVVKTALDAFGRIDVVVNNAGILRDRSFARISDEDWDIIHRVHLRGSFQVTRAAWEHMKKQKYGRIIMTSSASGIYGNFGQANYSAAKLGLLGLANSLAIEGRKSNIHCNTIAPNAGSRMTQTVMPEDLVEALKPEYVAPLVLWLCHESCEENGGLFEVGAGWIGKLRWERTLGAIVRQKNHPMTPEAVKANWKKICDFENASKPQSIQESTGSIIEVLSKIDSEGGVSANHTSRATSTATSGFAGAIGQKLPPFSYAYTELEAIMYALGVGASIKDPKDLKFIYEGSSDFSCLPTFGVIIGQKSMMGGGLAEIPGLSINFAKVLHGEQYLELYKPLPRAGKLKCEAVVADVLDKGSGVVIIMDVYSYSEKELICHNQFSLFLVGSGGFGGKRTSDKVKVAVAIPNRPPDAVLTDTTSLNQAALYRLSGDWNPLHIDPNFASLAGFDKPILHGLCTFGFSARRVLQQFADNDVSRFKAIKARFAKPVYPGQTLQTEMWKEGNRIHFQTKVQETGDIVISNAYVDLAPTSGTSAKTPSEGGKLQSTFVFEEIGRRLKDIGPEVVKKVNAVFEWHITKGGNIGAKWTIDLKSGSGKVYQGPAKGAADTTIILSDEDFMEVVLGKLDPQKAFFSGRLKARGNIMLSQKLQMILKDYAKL
# Description: as §1, §2
# HSD17B10 = target: T6, HSD17B10 (Homo sapiens, UniProt Q99714); assay: Steroid substrate panel against HSD17B family member B10; type: biochemical; details: substrate at 50 μM; estradiol set as 100%
# T6 construct: made in house
# T6 sequence (Q99714 1-261): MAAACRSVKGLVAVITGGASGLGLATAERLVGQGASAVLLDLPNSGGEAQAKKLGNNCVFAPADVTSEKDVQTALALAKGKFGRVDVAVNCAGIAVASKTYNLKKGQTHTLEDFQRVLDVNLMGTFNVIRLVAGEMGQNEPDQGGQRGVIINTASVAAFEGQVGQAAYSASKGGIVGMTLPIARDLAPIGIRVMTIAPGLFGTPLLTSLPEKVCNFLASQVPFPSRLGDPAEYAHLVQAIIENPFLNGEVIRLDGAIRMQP
# Description: as §1, §2
# HSD17B1 [5] = target: T3, HSD17B1; assay: Steroid substrate panel against HSD17B family member B1; type: biochemical; details: substrate at 50 μM; estradiol set as 100%
# Description: as §1, §2
# [6] = target: T7, HEK293 cells overexpressing HSD17B13 isoform A (Homo sapiens, UniProt Q7Z5P4); assay: HEK293 cell-based substrate consumption assay (LC-MS); details: 1 μM substrate, 2 hours or 48 hours
# T7 construct: expressed in transfected cells; host or cells: HEK293
# T7 sequence (Q7Z5P4 20-300): T1 sequence (Q7Z5P4 20-300)
# HSD17B5 = target: T8, HSD17B5 (Homo sapiens, UniProt P42330); assay: Steroid substrate panel against HSD17B family member B5; type: biochemical; details: substrate at 50 μM; estradiol set as 100%
# T8 construct: made in house
# T8 sequence (P42330 1-323): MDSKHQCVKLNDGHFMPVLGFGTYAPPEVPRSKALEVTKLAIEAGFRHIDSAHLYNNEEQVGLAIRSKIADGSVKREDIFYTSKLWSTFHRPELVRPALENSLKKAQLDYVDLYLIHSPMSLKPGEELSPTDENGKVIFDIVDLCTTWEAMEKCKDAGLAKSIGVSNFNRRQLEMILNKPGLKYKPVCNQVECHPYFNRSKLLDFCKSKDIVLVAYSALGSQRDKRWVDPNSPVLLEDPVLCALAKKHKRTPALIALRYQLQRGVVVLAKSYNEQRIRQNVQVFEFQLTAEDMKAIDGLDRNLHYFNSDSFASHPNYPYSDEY
# Description: as §1, §2
# HSD17B11 = target: T9, HSD17B11 (Homo sapiens, UniProt Q8NBQ5); assay: Steroid substrate panel against HSD17B family member B11; type: biochemical; details: substrate at 50 μM; estradiol set as 100%
# T9 construct: made in house
# T9 sequence (Q8NBQ5 20-300): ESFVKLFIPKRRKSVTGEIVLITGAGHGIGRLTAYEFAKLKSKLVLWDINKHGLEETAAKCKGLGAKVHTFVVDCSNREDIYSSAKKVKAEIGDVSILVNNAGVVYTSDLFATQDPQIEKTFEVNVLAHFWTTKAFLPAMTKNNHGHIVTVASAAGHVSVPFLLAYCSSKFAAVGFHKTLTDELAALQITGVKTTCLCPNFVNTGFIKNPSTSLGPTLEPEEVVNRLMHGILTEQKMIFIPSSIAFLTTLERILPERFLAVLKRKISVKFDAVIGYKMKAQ
# Description: as §1, §2
SMILES,"HSD17B13 Enzymatic Activity Relative Light Units (human HSD17B13 [1]; Steroid Library, 50 μM steroid) [RLU]","HSD17B13 Enzymatic Activity Percent Estradiol Control (human HSD17B13 [1]; Steroid Library, 50 μM steroid) [%]",substrate for HSD17B13 [3],"Percent of Control (POC), B2 (HSD17B2) [%]","Percent of Control (POC), B4 (HSD17B4) [%]","Percent of Control (POC), B10 (HSD17B10) [%]","Percent of Control (POC), B1 (HSD17B1 [5]) [%]","Percent of Control (POC), B5 (HSD17B5) [%]","Percent of Control (POC), B11 (HSD17B11) [%]",further results
C[C@]12CC[C@H]3[C@@H](CC[C@@]45O[C@@H]4C(O)=C(C#N)C[C@]35C)[C@@H]1CC[C@@H]2O [Trilostane],1896560,30.32,–,–,–,–,–,–,–,suitability as substrate for HSD17B13 (human HSD17B13 [2]): suitable substrates
CCCCCC[C@@H](O)C/C=C\CCCCCCCC(=O)O [ricinoleic acid],–,–,identified as representative substrates,–,–,–,–,–,–,–
CCCCC/C=C\C[C@@H](O)/C=C/C=C/C=C\[C@@H](O)CCCC(=O)O [Leukotriene B4],–,–,is a substrate,–,–,–,–,–,–,"identified as enzymatic substrate of HSD17B13 (human HSD17B13 [1]; 265 unique putative substrates tested): enzymatic substrates; HSD17B13 Enzymatic Activity Relative Light Units (human HSD17B13 [1]; Bioactive Lipid Library, 5 μM bioactive lipid (Estradiol Control 50 μM)): 1743000 RLU; HSD17B13 Enzymatic Activity Percent Estradiol Control (human HSD17B13 [1]; Bioactive Lipid Library, 5 μM bioactive lipid): 115.40%"
C[C@]12CC[C@H]3C(=CCc4cc(O)ccc43)[C@@H]1CCC2=O [Equilin],186840,0.46,–,–,–,–,–,–,–,inhibition of conversion of estrone to estradiol by HSD17B1 (HSD17B1 [4]): can be inhibited by equilin
C[C@]12CCC(O)C[C@@H]1CC[C@@H]1[C@@H]2CC[C@]2(C)[C@@H](O)CC[C@@H]12 (stereo partly shown) [Androstanediol],488440,5.73,–,46.9,63.0,1.9,0.3,216,0.0,conversion of substrate catalyzed by HSD17B13 in cells [6]: did not substantially catalyze the conversion
CC[C@H]1[C@@H](O)[C@@H]2[C@H](CC[C@]3(C)[C@@H]([C@H](C)CCC(=O)O)CC[C@@H]23)[C@@]2(C)CC[C@@H](O)C[C@@H]12 [6-ethylchenodeoxycholic acid],76200,−1.47,–,0.1,4.6,39.3,0.0,192,0.0,–
